According to patent US9732075B2, “Benzimidazole-proline derivatives” (IDORSIA PHARMACEUTICALS LTD, priority 2012, dated 2017):

Key:
human orexin-2 receptor = human orexin-2 receptor (Homo sapiens (Human), UniProt O43614); experiment: In vitro assay: intracellular calcium measurements (FLIPR), antagonistic activity; format: cell-based; settings: CHO cells expressing human orexin-2 receptor, orexin-A agonist, geometric mean, read-out: IC50 Ox2
Summary of the method: (§1)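 Dye-loaded CHO cells expressing either human orexin receptor are exposed to test antagonist for 120 min, then stimulated with orexin-A at 3 nM.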

human orexin-1 receptor = human orexin-1 receptor (Homo sapiens (Human), UniProt O43613); experiment: as above; format: cell-based; settings: CHO cells expressing human orexin-1 receptor, orexin-A agonist, geometric mean, read-out: IC50 Ox1
human orexin-1 receptor, sequence (O43613 whole entry): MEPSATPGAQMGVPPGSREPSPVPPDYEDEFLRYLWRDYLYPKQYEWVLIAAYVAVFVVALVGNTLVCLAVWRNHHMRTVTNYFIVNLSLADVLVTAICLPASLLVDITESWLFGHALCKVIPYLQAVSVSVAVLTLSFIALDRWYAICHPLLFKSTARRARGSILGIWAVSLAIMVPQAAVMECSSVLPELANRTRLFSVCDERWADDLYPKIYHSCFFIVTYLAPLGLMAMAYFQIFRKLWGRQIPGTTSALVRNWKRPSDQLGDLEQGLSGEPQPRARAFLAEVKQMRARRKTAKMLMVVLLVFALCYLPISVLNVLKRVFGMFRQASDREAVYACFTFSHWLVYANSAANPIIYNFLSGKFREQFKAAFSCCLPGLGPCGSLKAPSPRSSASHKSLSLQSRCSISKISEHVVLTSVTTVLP
Summary of the method: as §1

human orexin-2 receptor, sequence (O43614 whole entry): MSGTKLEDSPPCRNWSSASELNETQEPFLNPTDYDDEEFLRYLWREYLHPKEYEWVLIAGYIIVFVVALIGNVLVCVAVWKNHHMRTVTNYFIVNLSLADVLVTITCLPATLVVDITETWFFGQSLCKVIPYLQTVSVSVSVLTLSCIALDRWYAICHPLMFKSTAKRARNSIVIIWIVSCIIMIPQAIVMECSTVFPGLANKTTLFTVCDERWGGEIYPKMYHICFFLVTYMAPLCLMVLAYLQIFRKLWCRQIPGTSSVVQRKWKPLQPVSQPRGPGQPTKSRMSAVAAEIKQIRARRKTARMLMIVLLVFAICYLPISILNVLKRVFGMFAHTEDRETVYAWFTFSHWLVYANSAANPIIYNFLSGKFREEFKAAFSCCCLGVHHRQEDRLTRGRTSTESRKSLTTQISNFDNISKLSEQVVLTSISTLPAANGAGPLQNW

SMILES	IC50 (human orexin-2 receptor)	IC50 (human orexin-1 receptor)
C=C1C[C@@H](c2nc3cc(OC)ccc3[nH]2)N(C(=O)c2cc(F)ccc2-n2nccn2)C1 [Ex. 6.18]	29 nM	1530 nM
Cc1c(Cl)ccc2[nH]c([C@]3(C)CCCN3C(=O)c3c(F)cccc3-n3nccn3)nc12 [Ex. 5.48]	25 nM	12 nM
Cc1ccc(-n2nccn2)c(C(=O)N2CCC[C@@]2(C)c2nc3c(C)c(Cl)ccc3[nH]2)n1 [Ex. 5.47]	15 nM	5 nM
CO[C@@H]1C[C@@H](c2nc3ccc(Cl)c(C)c3[nH]2)N(C(=O)c2nc(C)sc2-c2ccc(Cl)cc2)C1 [Ex. 3.35]	4 nM	3 nM
Cc1ccc(-n2nccn2)c(C(=O)N2CCC[C@@]2(C)c2nc3cc(F)c(Br)cc3[nH]2)c1 [Ex. 5.23]	80 nM	15 nM
COc1ccccc1-c1sc(C)nc1C(=O)N1CC[C@H](C)[C@H]1c1nc2c(C(F)(F)F)cccc2[nH]1 [Ex. 4.156]	489 nM	14 nM
Cc1nc(C(=O)N2CCC[C@@]2(C)c2nc3cc(OC(F)(F)F)ccc3[nH]2)c(-c2ccc(C)c(C)c2)s1 [Ex. 5.245]	80 nM	14 nM
C=C1C[C@@H](c2nc3cc(OC)ccc3[nH]2)N(C(=O)c2cnc(C)nc2-c2cccc(C)c2)C1 [Ex. 6.11]	56 nM	135 nM
Cc1ccc(-c2nc(C(=O)N3CCC[C@@]3(C)c3nc4c(C)c(Cl)ccc4[nH]3)c(-c3ccc(F)cc3)s2)c(F)c1 [Ex. 5.253]	1190 nM	12 nM
Cc1nc(C(=O)N2CCCC2c2nc3c4c(ccc3[nH]2)OCCO4)c(-c2ccccc2)s1 (stereo not drawn) [Ex. 1.140]	46 nM	192 nM
COc1cc(C(=O)N2CCC[C@@]2(C)c2nc3cc(C)c(C)cc3[nH]2)c(-n2nccn2)cc1OC [Ex. 5.57]	55 nM	57 nM
C=C1C[C@@H](c2nc3cc(C(C)(C)C)ccc3[nH]2)N(C(=O)c2ccccc2-n2nccn2)C1 [Ex. 6.162]	7 nM	330 nM
COc1ccc(-n2nccn2)c(C(=O)N2C[C@H](OC)C[C@H]2c2nc3ccc(Cl)c(C)c3n2C)c1 [Ex. 7.1]	162 nM	16 nM
Cc1cc2[nH]c([C@@H]3[C@@H](C)CCN3C(=O)c3c(-n4nccn4)ccc(C)c3F)nc2cc1Cl [Ex. 4.75]	636 nM	8 nM
Cc1ccc(-c2ncccn2)c(C(=O)N2CCC[C@@]2(C)c2nc3cc(C)c(C)cc3[nH]2)c1 [Ex. 5.284]	18 nM	10 nM
Cc1nc(C(=O)N2CC[C@H](C)[C@H]2c2nc3ccccc3[nH]2)c(-c2cccc(Cl)c2)s1 [Ex. 4.6]	3890 nM	29 nM
Cc1nc(C(=O)N2CC[C@H](C)[C@H]2c2nc3cccc(Cl)c3[nH]2)c(-c2cccc(Cl)c2)s1 [Ex. 4.22]	1080 nM	6 nM
Cc1cc(Cl)cc2[nH]c([C@@H]3[C@@H](C)CCN3C(=O)c3ccccc3-n3nccn3)nc12 [Ex. 4.101]	183 nM	18 nM
C=C1CC(c2nc3c(OC)ccc(OC)c3[nH]2)N(C(=O)c2cc(C)sc2-c2ccc(C)c(C)c2)C1 (racemic) [Ex. 6.83]	23 nM	8 nM

SMILES	IC50 (human orexin-2 receptor)	IC50 (human orexin-1 receptor)
C=C1CC(c2nc3cc(Cl)c(C)cc3[nH]2)N(C(=O)c2cc(C)sc2-c2ccc(C)c(C)c2)C1 (racemic) [Ex. 6.80]	19 nM	13 nM
COc1cc(C(=O)N2CCC[C@@]2(C)c2nc3cc(F)c(Br)cc3[nH]2)c(-n2nccn2)cc1OC [Ex. 5.125]	126 nM	84 nM
COc1ccc(-c2ccccc2C(=O)N2CCC[C@@]2(C)c2nc3cc(C)c(C)cc3[nH]2)cc1 [Ex. 5.102]	82 nM	34 nM
Cc1cc(C(=O)N2CCC[C@@]2(C)c2nc3c(C)cccc3[nH]2)c(-n2nccn2)cc1C [Ex. 5.51]	18 nM	10 nM
C=C1CC(c2nc3c(C)c(Cl)ccc3[nH]2)N(C(=O)c2cc(C)sc2-c2ccc(C)c(C)c2)C1 (stereo not drawn) [Ex. 6.74]	11 nM	4 nM
Cc1cc2nc([C@]3(C)CCCN3C(=O)c3ccccc3-c3ccccc3F)[nH]c2cc1C [Ex. 5.103]	70 nM	46 nM
C=C1CC(c2nc3cc(C)c(C)cc3[nH]2)N(C(=O)c2cc(C)sc2-c2ccc(C)c(C)c2)C1 (racemic) [Ex. 6.75]	4 nM	8 nM
Cc1ccc2[nH]c([C@]3(C)CCCN3C(=O)c3ccccc3-c3ccccc3F)nc2c1C [Ex. 5.121]	43 nM	56 nM
C=C1CC(c2nc3cccc(Cl)c3[nH]2)N(C(=O)c2nc(C3CC3)sc2-c2cccc(C)c2)C1 (racemic) [Ex. 6.99]	1 nM	5 nM
COc1ccccc1-c1nc(C(=O)N2CCC[C@@]2(C)c2nc3c(C)c(Cl)ccc3[nH]2)c(-c2ccc(F)cc2)s1 [Ex. 5.229]	858 nM	54 nM
Cc1ccc(-c2cccc(C)c2C)c(C(=O)N2CCC[C@@]2(C)c2nc3cc(C(F)(F)F)ccc3[nH]2)c1 [Ex. 5.196]	199 nM	91 nM
COc1ccc(-n2nccn2)c(C(=O)N2CCC[C@@]2(C)c2nc3cc(C(F)(F)F)c(Cl)cc3[nH]2)c1F [Ex. 5.146]	43 nM	15 nM
Cc1nc(C(=O)N2CCCC2c2nc3cc(Cl)c(C)cc3[nH]2)c(-c2cccc(Cl)c2)s1 (stereo not drawn) [Ex. 1.101]	50 nM	21 nM
CSc1cccc2nc([C@@H]3CCCN3C(=O)c3nc(C)sc3-c3cc(F)cc(F)c3)[nH]c12 [Ex. 1.71]	162 nM	95 nM
C=C1C[C@@H](c2nc3c(C)c(Cl)ccc3[nH]2)N(C(=O)c2nc(C)sc2-c2ccc(C)c(C)c2)C1 [Ex. 6.54]	1 nM	3 nM
CSc1cccc2nc([C@@H]3CCCN3C(=O)c3cnc(C)nc3-c3ccccc3)[nH]c12 [Ex. 1.87]	77 nM	30 nM
Cc1nc(C(=O)N2CCC[C@@]2(C)c2nc3c(F)c(F)ccc3[nH]2)c(-c2cccc(F)c2)s1 [Ex. 5.212]	239 nM	26 nM
COc1ccc2nc([C@@H]3CCCN3C(=O)c3ccccc3-c3ccc(C)c(C)c3)[nH]c2c1 [Ex. 1.26]	22 nM	125 nM
Cc1ccc(C(=O)N2CC[C@H](C)[C@H]2c2nc3c(C)c(Cl)ccc3[nH]2)c(-c2ncccn2)c1 [Ex. 4.174]	132 nM	12 nM

SMILES	IC50 (human orexin-2 receptor)	IC50 (human orexin-1 receptor)
C=C1CC(c2nc3c(C)c(Cl)ccc3[nH]2)N(C(=O)c2nc(C3CC3)sc2-c2cccc(C)c2)C1 (stereo not drawn) [Ex. 6.89]	2 nM	2 nM
CSc1ccc2nc([C@@H]3CCCN3C(=O)c3c(C)cccc3-n3nccn3)[nH]c2c1 [Ex. 1.154]	21 nM	483 nM
Cc1ccc(-c2ccccc2F)c(C(=O)N2CCC[C@@]2(C)c2nc3cc(C(F)(F)F)c(Cl)cc3[nH]2)c1 [Ex. 5.151]	40 nM	20 nM
CSc1ccc2[nH]c([C@@H]3CCCN3C(=O)c3cc(C)ccc3-n3cccn3)nc2c1 [Ex. 1.177]	30 nM	842 nM
Cc1ccc(-n2nccn2)c(C(=O)N2CC[C@H](C)[C@H]2c2nc3cccc(C)c3[nH]2)c1 [Example 4.1, (5-methyl-2-(2H-1,2,3-triazol-2-yl)phenyl)((2S,3S)-3-methyl-2-(7-methyl-1H-benzo[d]imidazol-2-yl)pyrrolidin-1-yl)methanone]	778 nM	29 nM
CSc1cccc2nc([C@@H]3CCCN3C(=O)c3cncnc3-c3cccc(C)c3)[nH]c12 [Ex. 1.88]	109 nM	102 nM
C=C1C[C@@H](c2nc3cc(C(C)(C)C)ccc3[nH]2)N(C(=O)c2cc(OC)c(OC)cc2-n2nccn2)C1 [Ex. 6.170]	15 nM	18 nM
Cc1ccc(-n2nccn2)c(C(=O)N2CCC[C@@]2(C)c2nc3cc(Br)cc(C)c3n2C)c1 [Example 7.4, (S)-(2-(5-bromo-1,7-dimethyl-1H-benzo[d]imidazol-2-yl)-2-methylpyrrolidin-1-yl)(5-methyl-2-(2H-1,2,3-triazol-2-yl)phenyl)methanone]	6 nM	7 nM
COc1cc2nc([C@]3(C)CCCN3C(=O)c3c(-n4nccn4)ccc(C)c3F)[nH]c2cc1OC [Ex. 5.68]	150 nM	141 nM
Cc1ccc(-n2nccn2)c(C(=O)N2CCC[C@@]2(C)c2nc3cc(Br)ccc3[nH]2)c1 [Ex. 5.8]	129 nM	13 nM
Cc1nc(C(=O)N2CC[C@H](C)[C@H]2c2nc3cc(C#N)ccc3[nH]2)c(-c2cccc(Cl)c2)s1 [Ex. 4.8]	9930 nM	68 nM
CO[C@@H]1C[C@@H](c2nc3ccc(Cl)c(C)c3[nH]2)N(C(=O)c2cc(Cl)ccc2-n2nccn2)C1 [Ex. 3.10]	5 nM	45 nM
C=C1CC(c2nc3c(C)c(C)ccc3[nH]2)N(C(=O)c2cc(C)sc2-c2ccc(C)c(C)c2)C1 (stereo not drawn) [Ex. 6.77]	9 nM	3 nM
CSc1cccc2nc([C@@H]3CCCN3C(=O)c3ccccc3-n3nccn3)[nH]c12 [Ex. 1.76]	17 nM	279 nM
Cc1ccc(-n2nccn2)c(C(=O)N2CCC[C@@]2(C)c2nc3cc(C(F)(F)F)c(F)cc3[nH]2)c1 [Ex. 5.22]	86 nM	7 nM
C=C1C[C@@H](c2nc3c(C)cccc3[nH]2)N(C(=O)c2nc(C)sc2-c2ccccc2)C1 [Ex. 6.40]	9 nM	70 nM
COc1ccc2nc([C@@H]3[C@@H](C)CCN3C(=O)c3nc(C)sc3-c3cccc(Cl)c3)[nH]c2c1 [Ex. 4.26]	2280 nM	17 nM
COc1cc2nc([C@]3(C)CCCN3C(=O)c3ccccc3-c3ccc(C)cc3)[nH]c2cc1OC [Ex. 5.88]	166 nM	192 nM
CSc1cccc2nc([C@@H]3CCCN3C(=O)c3nc(C4CC4)sc3-c3ccc(C)cc3)[nH]c12 [Ex. 1.68]	8 nM	7 nM
